The results in this text go back to paper PMC5554220, “A Novel Aldosterone Antagonist Limits Renal Injury in 5/6 Nephrectomy” (Scientific Reports, 2017).

The structures appear in SMILES notation.

Data set [1] deals with rats with 5/6 renal ablation (Nx). The data set is described as follows: Protocol 1 (early treatment), 5/6 renal ablation (Nx). The data set is classed as in vivo, male Munich-Wistar rats. The text has this:
One-hundred forty-five adult male Munich-Wistar rats, obtained from a local facility at the Faculty of Medicine, University of São Paulo, weighing between 220 and 250 g, were used in this study. All experimental procedures were approved by the local Research Ethics Committee (Comissão de Ética para Análise de Projetos de Pesquisa do Hospital das Clínicas da Faculdade de Medicina da Universidade de São Paulo, CAPPesq, process n° 0905/09), and carried out following strictly our institutional guidelines and current international standards for manipulation and care of laboratory animals. Body weights and general conditions were assessed daily. Five-sixths renal ablation (Nx) was performed as a single-step procedure under anesthesia with ketamine 50 mg/kg and xylazine 10 mg/kg im. After ventral laparotomy, the right kidney was excised and two or three branches of the left renal artery were ligated, so as to promote infarction of two-thirds of the left kidney. The operation was invariably well tolerated. Sham-operated rats underwent anesthesia and manipulation of the renal pedicles without removal of renal mass. After surgery, rats received enrofloxacin and, upon recovery, had free access to tap water and regular rodent chow containing 0.5 Na and 22% protein (Nuvital Labs, Curitiba, Brazil), and were kept at 23 ± 1 °C and 60 ± 5% relative air humidity, under an artificial 12–12 hour light/dark cycle. Rats were then treated following two different experimental protocols (described later).
In this first protocol, Nx rats were divided into groups: NX + V (N = 8), receiving vehicle; NX + Eple (N = 8), receiving oral (mixed with the chow) Eple, 150 mg/kg/day; and Nx + Ly (N = 8), receiving oral Ly, 20 mg/kg/day. A group of sham-operated rats (S, N = 7) was also studied. Treatments were started 24 h after surgery. Rats were followed during 60 days, with determination of TCP and UalbV on Days 30 and 60. TCP was assessed with an optoelectronic automated device (Visitech Systems, Apex, NC), after rats had been preconditioned so as to remain calm during the procedure. UalbV was measured with a conventional immunodiffusion technique. On Day 60, rats were anesthetized as described before, and blood was collected from the abdominal aorta for determination of serum creatinine, serum K^+, PRA and PAC. The remnant kidney was then perfusion-fixed with Duboscq-Brazil solution after a brief washout with saline to remove blood from renal vessels, and prepared for histomorphometric and immunohistochemical analyses using conventional sequential techniques.
Histomorphometric analysis was performed blindly by two independent observers. The extent of glomerular injury was estimated, in PAS-stained sections, by determining the percentage of glomeruli with sclerotic lesions. The fraction of the renal cortical area occupied by interstitial tissue (%INT) was estimated in 25 consecutive microscopic fields of Masson-stained sections by a point-counting technique, at a final magnification of 200X, under a 144-point grid.
PRA and PAC were determined using commercially available radioimmunoassay kits (Renin Active IRMA and Aldosterone Active RIA, Beckman Coulter, Carlsbad, CA).

Data set [2] addresses T1, human glucocorticoid receptor (hGR) (Homo sapiens, UniProt P04150).
T1 construct: expressed in transfected cells; host or cells: HEK293 cells
T1 sequence (P04150 1-777): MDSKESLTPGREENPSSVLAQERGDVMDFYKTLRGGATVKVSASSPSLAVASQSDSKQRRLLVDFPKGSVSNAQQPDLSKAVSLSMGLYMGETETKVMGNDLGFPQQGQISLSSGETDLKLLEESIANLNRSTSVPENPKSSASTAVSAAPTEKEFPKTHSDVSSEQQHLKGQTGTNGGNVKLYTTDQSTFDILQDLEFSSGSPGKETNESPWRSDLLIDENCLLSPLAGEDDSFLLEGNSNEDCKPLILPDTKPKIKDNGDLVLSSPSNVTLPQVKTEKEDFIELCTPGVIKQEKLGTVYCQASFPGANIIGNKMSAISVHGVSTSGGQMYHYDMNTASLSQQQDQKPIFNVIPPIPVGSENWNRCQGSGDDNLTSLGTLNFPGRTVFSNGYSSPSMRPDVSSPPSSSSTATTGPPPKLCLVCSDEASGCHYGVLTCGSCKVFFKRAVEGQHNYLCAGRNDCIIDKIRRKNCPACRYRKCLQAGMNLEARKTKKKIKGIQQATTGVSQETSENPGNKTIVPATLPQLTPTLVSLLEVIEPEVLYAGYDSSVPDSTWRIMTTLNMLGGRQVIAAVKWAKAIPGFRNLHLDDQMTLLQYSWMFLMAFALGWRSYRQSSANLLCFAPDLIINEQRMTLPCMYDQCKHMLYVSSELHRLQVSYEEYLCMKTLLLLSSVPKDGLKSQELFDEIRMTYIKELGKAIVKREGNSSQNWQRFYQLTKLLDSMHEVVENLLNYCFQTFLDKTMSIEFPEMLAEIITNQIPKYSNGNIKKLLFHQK
The experiment in a line: Radioligand binding, hGR expressed in HEK293 cells. The procedure: Affinity of ligands to the soluble receptor was determined using vacuum filtration methods, preparing soluble receptors in 96-well Falcon polystyrene plates (BD Biosciences, Bedford, MA) in a total volume of 250 μl. The hMR Sf9 lysate (approximately 20–25 μg protein in 20 μl) was incubated in the absence or presence of competing ligands with 10 μl of [1,2,6,7-3H] […] Binding studies for ligands for hPR and hAR were determined using [1,2,6,7-3H(N)] Progesterone (specific activity 103 Ci/mmol, at a final concentration 0.5 nM; NET381, NEN/Perkin Elmer Life Sciences, Boston, MA) and [17α-methyl-3H] Mibolerone, an enzymaticaly stable analog of testosterone (specific activity 76.8 Ci/mmol, final concentration 0.3 nM; NET919, NEN), respectively. Specific binding of 3H-progesterone for hPR and 3H-mibolerone for hAR was determined in the presence and absence of 1 μM mifepristone. Inhibition constants (Ki), were determined either from the Cheng-Prusoff equation[32], or directly using non-linear regression curve fitting to a three-parameter one-site competitive equation. Ki values obtained from individual concentration response curves were reported as the mean ± SEM. Protein was measured using colorimetric detection and quantification of bicinchoninic acid (BCA Protein Assay, Pierce, Rockford, IL). Cos-7L cells were cotransfected with expression vectors and a reporter plasmid responsive to all 3 nuclear hormone receptors. pBluescript II SK (+) (Stratagene, San Diego, CA) was included as a source of carrier DNA. The number of repetitions of full concentration response curves (n) represents values from at least two independent experiments for each condition. Concentration response curves were analyzed statistically using a four-parameter logistic equation (Hill equation for sigmoid curves). Similar methodology was adopted for the human glucocorticoid receptor (hGR) expressed in HEK293 cells.

The nature of data set [3]: Pharmacokinetics (data not shown).

In the case of `O=c1[nH]c2ccc(/C=C3\c4ccc(F)cc4COc4cc(F)ccc43)cc2[nH]1` [Ly], in data set [1] (60 days after ablation, Eple 150 mg/kg/day, Ly 20 mg/kg/day oral), the “Albumin excretion rate (UalbV)” value is on record as “significantly lower in Ly-treated than in untreated or Eple-treated rats”. Further, in data set [1] (Day 60), the “Fractional cortical interstitial area” value is given as “significantly diminished”, the “Left kidney weight corrected for body weight (renal hypertrophy)” value was “renal hypertrophy was significantly attenuated” and the “Plasma renin activity (PRA)” value is given as “markedly increased PRA”. In addition, in data set [1] (Day 60, higher than in S), the “PAC relative to sham (S)” value was “over 30 fold”. The “Plasma K+ levels” value in data set [1] (Day 60, versus Nx + V) is “not aggravated”. Besides, in data set [1] (Eple 150 mg/kg/day, Ly 20 mg/kg/day oral), the “Tail-cuff pressure (TCP)” value is reported as “More pronounced attenuation of hypertension”. Further, in data set [2] (hGR expressed in HEK293 cells, read-out: Mean Ki ± SEM hGR*), the Ki (as a rule, the equilibrium dissociation constant of an inhibitor or competing ligand from its target) was 112 ± 18 nM. For the same molecule, in data set [2] (selectivity), the “Ratio of Ki's hGR*: hMR” value came out at 70. Besides, the Pharmacokinetics properties entry in data set [3] is reported as “good pharmacokinetics properties”.
